“And” between values parts separate entries of the source, which are not always exact repeats. Identical values can stand only once.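 Five compound concentrations were applied to cells in 96-well plates for 48 hours; endpoints were derived by simple linear interpolation of the resulting dose-response curve. GI50 is the concentration that inhibits growth by half. The concentration for full growth arrest is given as TGI.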
Tests used:
Assay in all cases: NCI tumour cell line growth inhibition, 48 h
[1] = tested on: CAKI-1 renal
[2] = tested on: COLO 205 colon
[3] = tested on: HOP-62 NSCLC
[4] = tested on: OVCAR-3 ovarian
[5] = tested on: OVCAR-4 ovarian
[6] = tested on: RPMI-8226 leukemia
[7] = tested on: SF-295 CNS
[8] = tested on: T-47D breast
[9] = tested on: U251 CNS
[10] = tested on: CCRF-CEM leukemia

SMILES | GI50 [1] [µM] | TGI [1] | GI50 [2] [µM] | TGI [2] | GI50 [3] [µM] | TGI [3] [µM] | GI50 [4] [µM] | TGI [4] [µM] | GI50 [5] [µM] | TGI [5] | GI50 [6] [µM] | TGI [6] [µM] | GI50 [7] [µM] | TGI [7] | GI50 [8] [µM] | TGI [8] [µM] | GI50 [9] [µM] | TGI [9] [µM] | GI50 [10] [µM] | TGI [10] [µM]
COc1ccc(/C=C2\COc3ccc(O)c(O)c3C2=O)c(OC)c1OC | 2.42 | 11.3 µM | 2.78 | 10 µM | 3.12 | 20 | 2.94 | 11.5 | 2.74 | 17.8 µM | 0.457 | 2.95 | 8.1 | > 100 µM | 2.58 | 9.08 | 2.66 | 11.2 |  | 
Cc1cc(N2CCCCC2)nc(NC2CCCC(Nc3ccnc4cc(Cl)ccc34)C2)n1 (stereo not given) |  |  | 1.44 | 2.98 µM | 1.46 | 2.91 | 1.63 | 3.42 | 1.4 | 3.29 µM | 0.472 | 2.56 | 1.52 | 2.92 µM | 1.51 | 4.07 |  |  | 1.48 | 10.6
OCC[N+]12CCCN1CCC2 |  | > 100 µM |  | > 100 µM |  | > 100 |  | > 100 |  | > 100 µM |  |  |  | > 100 µM |  |  |  | > 100 |  | > 100
COc1ccc(C(=O)c2c3cc(OC)c(OC)c(OC)c3cc[n+]2C)cc1 |  |  |  |  |  | > 100 |  |  |  |  |  | 49 |  |  |  |  |  | > 100 |  | 71.2
O=C(CCc1ccccc1)NS(=O)(=O)c1ccccc1 |  | > 100 µM |  | > 100 µM |  | > 100 |  | > 100 |  | > 100 µM |  | > 100 |  | > 100 µM |  |  |  | > 100 |  | > 100
CC(C)(C)C(=O)Nc1cccc2oc(-c3ccccc3)cc12 |  | > 100 µM |  | > 100 µM |  | > 100 |  | > 100 |  | > 100 µM |  | > 100 |  | > 100 µM |  |  |  | > 100 |  | > 100
NC1CCCCC1N.O=C1C=C/C(=C(/c2ccc(O)c(Br)c2)c2ccccc2S(=O)(=O)[O-])C=C1Br.O=C1C=C/C(=C(/c2ccc(O)c(Br)c2)c2ccccc2S(=O)(=O)[O-])C=C1Br.[Pt+4] |  |  | 1.64 | 40.6 µM | 7.88 | 9.95 | 13.8 | > 100 | 2.35 | > 100 µM | 6.29 | > 100 | 4.99 | > 100 µM |  |  | 5.21 | > 100 |  | 
COC(=O)c1ccc(/C=C(\c2ccc([N+](=O)[O-])o2)S(=O)(=O)c2ccc(NC(C)=O)cc2)o1 |  | 29.4 µM |  | 7.56 µM |  | 33.4 |  | 19.7 |  | 4.67 µM |  | 3.03 |  | 32.7 µM |  | > 100 |  | 28.8 |  | 
NS(=O)(=O)c1ccc(NC(=O)Cc2nc3ccccc3s2)cc1 |  | 30.5 µM |  | 34 µM |  | 50.9 |  | 30.4 |  | 34.9 µM |  | 74.1 |  | 33.2 µM |  |  |  | 28.5 |  | 47.3
COc1cccc(/C=C/C(=O)c2sc(C(N)=S)nc2C)c1O |  | > 100 µM |  | > 100 µM |  | > 100 |  | > 100 |  | > 100 µM |  | > 83.3 |  | > 100 µM |  |  |  | > 100 |  | 64.2
N#CCC(=O)N/N=C1/C(=O)N(c2cc(Cl)ccc2Cl)C(=O)C(=O)C1c1nc2ccccc2s1 (stereo not given) |  | 94.4 µM |  | > 100 µM |  | > 100 |  | > 100 |  | > 100 µM |  | > 100 |  | > 100 µM |  |  |  | > 100 |  | > 100
COc1cccc(-c2cc(=O)c3cc(N4CCOCC4)ccc3[nH]2)c1 |  | > 100 µM | 0.0353 | 0.0463 µM and 0.234 µM | 0.0791 | > 100 |  | 0.0412 |  |  | 0.135 |  | 0.204 |  |  |  |  |  | 0.0218 | 0.111
Cc1ccc(S(=O)(=O)N2CCN(C=S)CC2)cc1 |  |  |  | > 100 µM |  | > 100 |  | > 100 |  |  |  |  |  |  |  |  |  | > 100 |  | > 100
CC(C)(C)c1cc(CCCCCCCC2(CCCCCCCc3cc(C(C)(C)C)cc(C(C)(C)C)c3)OC(COCCOCCCCCC#N)C(COCCOCCCCCC#N)O2)cc(C(C)(C)C)c1 (stereo not given) |  | > 100 µM |  | > 100 µM |  | > 100 |  | > 100 |  | > 100 µM |  |  |  | > 100 µM |  |  |  | > 100 |  | > 100
O=[N+]([O-])c1ccc(C(Cl)C(Cl)c2ccc(C(Cl)C(Cl)c3ccc([N+](=O)[O-])cc3[N+](=O)[O-])cc2)c([N+](=O)[O-])c1 (stereo not given) | 0.35 | 5.7 µM and 1.93 µM |  | 1.99 µM |  | 6.2 |  |  | 0.326 | 8.21 µM and 3.52 µM |  | 0.509 | 0.602 | 25.8 µM and 5.76 µM |  |  |  | 3.03 |  | 1.02
CCOC(=O)C(CCC(N)=O)(CCC(=O)OC)C(=O)OCC |  | > 100 µM |  | > 100 µM |  | > 100 |  | > 100 |  | > 100 µM |  | > 100 |  | > 100 µM |  |  |  | > 100 |  | 
CCOc1ccc(/C=C/c2cc(OC)c(OC)c(OC)c2)cc1 |  | 24.1 µM |  | 2.5 µM |  | 35.9 |  | 1.88 |  | > 100 µM |  | > 100 |  | 16.9 µM |  |  |  | 13.2 |  | > 66.8
N#CC(C#N)=C1CCOc2ccc(F)cc21 | 15.4 | 51.9 µM | 21.7 | 67.6 µM | 13.2 | 25.9 | 11.9 | 24.2 | 14.6 | 27.8 µM | 17.4 | 38.4 | 16.9 | 41 µM |  |  | 11.2 | 23.2 |  | 
COc1cc(CNCCN2C(=O)c3ccc4c5c(ccc(c35)C2=O)C(=O)N(CCNCc2cc(OC)c(OC)c(OC)c2)C4=O)cc(OC)c1OC |  |  | 0.177 | 0.673 µM | 0.28 | 0.999 | 0.174 | 0.548 | 0.122 | 0.398 µM |  |  | 0.494 | 1.3 µM | 0.189 | 0.718 | 0.182 | 0.684 |  | 
O=C1C(=C([O-])c2ccccc2)C(=O)c2ccccc21.O=C1C(=C([O-])c2ccccc2)C(=O)c2ccccc21.[Mn+2] | > 100 | > 100 µM |  |  |  |  | 40.5 | > 100 | > 100 | > 100 µM | > 100 | > 100 | 74.6 | > 100 µM |  |  |  |  |  | 
